These results are taken from US8580829B2 (Boehringer Ingelheim International GmbH, priority 2010, dated 2013).

Assay [1] deals with T1, recombinant human FLAP protein (Homo sapiens, UniProt P20292).
T1 construct: made in house; host or cells: Sf9 insect cells (100,000 x g membrane fraction)
T1 sequence (P20292 1-161): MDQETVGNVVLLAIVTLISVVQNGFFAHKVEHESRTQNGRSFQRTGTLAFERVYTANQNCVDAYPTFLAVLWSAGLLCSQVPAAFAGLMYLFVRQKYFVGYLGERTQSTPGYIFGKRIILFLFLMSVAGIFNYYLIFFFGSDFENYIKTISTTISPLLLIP
Briefly: FLAP binding assay (Scintillation Proximity Assay, displacement of [125I]L-691,831). As to conditions: recombinant human FLAP membranes, [125I]L-691,831 probe; read-out: FLAP SPA IC50. On the procedure: Cell pellets produced from sf9 insect cells expressing recombinant human FLAP protein are resuspended in buffer A [15 mM Tris-HCl (pH 7.5), 2 mM MgCl2, 0.3 mM EDTA, 1 mM PMSF]. The cells are lysed with a Dounce homogenizer and the material is centrifuged at 10,000×g for 10 minutes. The supernatant is then collected and centrifuged at 100,000×g for 60 minutes. To prepare membrane protein for an assay, an aliquot of the 100,000×g pellet is resuspended in 1 ml of buffer A, Dounce homogenized, and finally subjected to polytron mixing (30 seconds). Membrane protein (25 μl, 5 μg) is mixed with WGA SPA beads (Amersham) and stirred for 1 h.
Background: In a scintillation proximity assay essentially only radioactivity close to the scintillant gives light.

Assay [2] concerns synthesis of LTB4 in human whole blood. Nature of the assay: human whole blood LTB4 production inhibition assay. It counts as cell-based. As to conditions: Homo sapiens, heparinized human whole blood, calcimycin 20 μM; read-out: hWB LTB4 IC50. On the procedure:
Compounds are additionally tested in a human whole blood assay to determine their ability to inhibit the synthesis of LTB4 in a cellular system. Compounds are combined with heparinized human whole blood and incubated for 15 minutes at 37° C. Calcimycin (20 μM final, prepared in phosphate-buffered saline, pH 7.4) is then added and the mixture is incubated for another 30 minutes at 37° C. The samples are centrifuged for 5 min at low speed (1500×g) and the plasma layer is removed. Plasma LTB4 concentrations are then measured using an antibody-based homogenous time-resolved fluorescence method (CisBio, Bedford, Mass.).

Turning to `Nc1ncc(-c2ccc(C3(c4noc(N5CCCC5=O)n4)CCC3)cc2)cn1` [Example 26, 1-(3-{1-[4-(2-Amino-pyrimidin-5-yl)-phenyl]-cyclobutyl}-1,2,4-oxadiazol-5-yl)-pyrrolidin-2-one], the IC50 worked out at 160 nM in assay [1] and 1600 nM in assay [2].

`CS(=O)(=O)Nc1nc(C2(c3ccc(-c4cnc(N)nc4)cc3)CCC2)no1` [Example 27, N-(3-{1-[4-(2-Amino-pyrimidin-5-yl)-phenyl]-cyclobutyl}-1,2,4-oxadiazol-5-yl)-methanesulfonamide]: the IC50 in assay [1] was 340 nM; in assay [2], more than 5000 nM.

Take `CNC(=O)c1ccc(-c2nc(C3(c4ccc(-c5cnc(N)nc5)cc4)CCC3)no2)cn1` [Example 28, 5-(3-{1-[4-(2-Amino-pyrimidin-5-yl)-phenyl]-cyclobutyl}-1,2,4-oxadiazol-5-yl)-pyridine-2-carboxylic acid methylamide]: the IC50 was 4.3 nM in assay [1] and 320 nM in assay [2].

In the case of `CN(C)C(=O)c1ccc(-c2nc(C3(c4ccc(-c5cnc(N)nc5)cc4)CCC3)no2)cn1` [Example 29, 5-(3-{1-[4-(2-Amino-pyrimidin-5-yl)-phenyl]-cyclobutyl}-1,2,4-oxadiazol-5-yl)-pyridine-2-carboxylic acid dimethylamide], the IC50 in assay [1] was found to be 6.9 nM; in assay [2] it was 190 nM.

For `Nc1ncc(-c2ccc(C3(c4noc(-c5ccc(C(=O)N6CCOCC6)nc5)n4)CCC3)cc2)cn1` [Example 30, [5-(3-{1-[4-(2-Amino-pyrimidin-5-yl)-phenyl]-cyclobutyl}-1,2,4-oxadiazol-5-yl)-pyridin-2-yl]-morpholin-4-yl-methanone], the results for the IC50 in assay [1] and in assay [2] were 6.5 nM and 230 nM, respectively.

In the case of `Cn1cc(-c2nc(C3(c4ccc(-c5cnc(N)nc5)cc4)CCC3)no2)ncc1=O` [Example 31, 5-(3-{1-[4-(2-Amino-pyrimidin-5-yl)-phenyl]-cyclobutyl}-1,2,4-oxadiazol-5-yl)-1-methyl-1Hpyrazin-2-one], the results for the IC50 in assay [1] and in assay [2] were 3 nM and 1300 nM, respectively.

With `Cn1cccc(-c2nc(C3(c4ccc(-c5cnc(N)nc5)cc4)CCC3)no2)c1=O` [Example 32, 3-(3-{1-[4-(2-Amino-pyrimidin-5-yl)-phenyl]-cyclobutyl}-1,2,4-oxadiazol-5-yl)-1-methyl-1Hpyridin-2-one], the values for the IC50 in assay [1] and in assay [2] were 4.6 nM and 77 nM, respectively.

For `COc1cc(-c2nc(C3(c4ccc(-c5cnc(N)nc5)cc4)CCC3)no2)on1` [Example 33, 5-(4-{1-[5-(3-Methoxy-isoxazol-5-yl)-1,2,4-oxadiazol-3-yl]-cyclobutyl}-phenyl)-pyrimidin-2-ylamine], the IC50 is 4 nM in assay [1] and 550 nM in assay [2].

For `Cc1cccc(-c2nc(C3(c4ccc(-c5cnc(N)nc5)cc4)CCC3)no2)c1` [Example 34, 5-{4-[1-(5-m-tolyl-1,2,4-oxadiazol-3-yl)-cyclobutyl]-phenyl}-pyrimidin-2-ylamine], the IC50 in assay [1] was 7.7 nM; in assay [2] it was 780 nM.

For the molecule `Cc1ccc(-c2nc(C3(c4ccc(-c5cnc(N)nc5)cc4)CCC3)no2)cc1` [Example 35, 5-{4-[1-(5p-Tolyl-1,2,4-oxadiazol-3-yl)-cyclobutyl]-phenyl}-pyrimidin-2-ylamine], the results for the IC50 in assay [1] and in assay [2] were 3.6 nM and 600 nM, respectively.

Turning to `CS(=O)(=O)c1ccc(-c2nc(C3(c4ccc(-c5cnc(N)nc5)cc4)CCC3)no2)cc1` [Example 36, 5-(4-{1-[5-(4-Methanesulfonyl-phenyl)-1,2,4-oxadiazol-3-yl]-cyclobutyl}-phenyl)-pyrimidin-2-ylamine], the values for the IC50 in assay [1] and in assay [2] were 4.3 nM and 260 nM, respectively.

With `Nc1cc(-c2nc(C3(c4ccc(-c5cnc(N)nc5)cc4)CCC3)no2)ccn1` [Example 37, 5-(4-{1-[5-(2-Amino-pyridin-4-yl)-1,2,4-oxadiazol-3-yl]-cyclobutyl}-phenyl)-pyrimidin-2-ylamine], the IC50 in assay [1] is 3.7 nM; in assay [2], 340 nM.

As to `Nc1ncc(-c2ccc(C3(c4noc(-c5ccc(S(N)(=O)=O)cc5)n4)CCC3)cc2)cn1` [Example 38, 4-(3-{1-[4-(2-Amino-pyrimidin-5-yl)-phenyl]-cyclobutyl}-1,2,4-oxadiazol-5-yl)-benzenesulfonamide], the IC50 in assay [1] was 2.4 nM; in assay [2], more than 5000 nM.

On to `CS(=O)(=O)c1cccc(-c2nc(C3(c4ccc(-c5cnc(N)nc5)cc4)CCC3)no2)c1` [Example 39, 5-(4-{1-[5-(3-Methanesulfonyl-phenyl)-1,2,4-oxadiazol-3-yl]-cyclobutyl}-phenyl)-pyrimidin-2-ylamine], for which the results for the IC50 in assay [1] and in assay [2] were 12 nM and 800 nM, respectively.

Regarding `Nc1ncc(-c2ccc(C3(c4noc(-c5c[nH]nn5)n4)CCC3)cc2)cn1` [Example 40, 5-(4-{1-[5-(1H-1,2,3-Triazol-4-yl)-1,2,4-oxadiazol-3-yl]-cyclobutyl}-phenyl)-pyrimidin-2-ylamine], the results for the IC50 in assay [1] and in assay [2] were 4.7 nM and 2100 nM, respectively.

For the molecule `N#Cc1cccc(-c2nc(C3(c4ccc(-c5cnc(N)nc5)cc4)CCC3)no2)c1` [Example 41, 3-(3-{1-[4-(2-Amino-pyrimidin-5-yl)-phenyl]-cyclobutyl}-1,2,4-oxadiazol-5-yl)-benzonitrile], the IC50 in assay [1] turned out to be 8.1 nM; in assay [2], 930 nM.

As to `N#Cc1ccc(-c2nc(C3(c4ccc(-c5cnc(N)nc5)cc4)CCC3)no2)cc1` [Example 42, 4-(3-{1-[4-(2-Amino-pyrimidin-5-yl)-phenyl]-cyclobutyl}-1,2,4-oxadiazol-5-yl)-benzonitrile], the IC50 in assay [1] was 8.4 nM; in assay [2] it was 690 nM.

As for `Nc1ncc(-c2ccc(C3(c4noc(-c5cccc(O)c5)n4)CCC3)cc2)cn1` [Example 43, 3-(3-{1-[4-(2-Amino-pyrimidin-5-yl)-phenyl]-cyclobutyl}-1,2,4-oxadiazol-5-yl)-phenol], the IC50 in assay [1] was 3.2 nM; in assay [2] it was 230 nM.

For `Nc1ncc(-c2ccc(C3(c4noc(-c5ccc(O)cc5)n4)CCC3)cc2)cn1` [Example 44, 4-(3-{1-[4-(2-Amino-pyrimidin-5-yl)-phenyl]-cyclobutyl}-1,2,4-oxadiazol-5-yl)-phenol], the IC50 came to 3.1 nM in assay [1] and 75 nM in assay [2].

In the case of `Nc1ncc(-c2ccc(C3(c4noc(-c5cccc(Cl)c5)n4)CCC3)cc2)cn1` [Example 45, 5-(4-{1-[5-(3-Chloro-phenyl)-1,2,4-oxadiazol-3-yl]-cyclobutyl}-phenyl)-pyrimidin-2-ylamine], the IC50 in assay [1] came to 7.9 nM; in assay [2], 950 nM.

As to `Nc1ncc(-c2ccc(C3(c4noc(-c5ccc(Cl)cc5)n4)CCC3)cc2)cn1` [Example 46, 5-(4-{1-[5-(4-Chloro-phenyl)-1,2,4-oxadiazol-3-yl]-cyclobutyl}-phenyl)-pyrimidin-2-ylamine], the IC50 in assay [1] was 7.5 nM; in assay [2], 1500 nM.

Regarding `Nc1ncc(-c2ccc(C3(c4noc(-c5cccc(S(N)(=O)=O)c5)n4)CCC3)cc2)cn1` [Example 47, 3-(3-{1-[4-(2-Amino-pyrimidin-5-yl)-phenyl]-cyclobutyl}-1,2,4-oxadiazol-5-yl)-benzenesulfonamide], the IC50 is 15 nM in assay [1] and 2400 nM in assay [2].

For orientation: IC50 means the point on the concentration scale where inhibition reaches its midpoint.
